Reference: publication PMC8151276, “An Integrated Approach toward NanoBRET Tracers for Analysis of GPCR Ligand Engagement” (Molecules, 2021)

Key:
Format in all cases: binding
FZD10 = target: T1, FZD10 (Homo sapiens, UniProt Q9ULW2); experiment: NanoBRET screen HiBiT-FZD10 in HEK293
T1 construct: purchased Promega (in-house HiBiT-GPCR construct library, NanoBRET)
T1 sequence (Q9ULW2 21-581): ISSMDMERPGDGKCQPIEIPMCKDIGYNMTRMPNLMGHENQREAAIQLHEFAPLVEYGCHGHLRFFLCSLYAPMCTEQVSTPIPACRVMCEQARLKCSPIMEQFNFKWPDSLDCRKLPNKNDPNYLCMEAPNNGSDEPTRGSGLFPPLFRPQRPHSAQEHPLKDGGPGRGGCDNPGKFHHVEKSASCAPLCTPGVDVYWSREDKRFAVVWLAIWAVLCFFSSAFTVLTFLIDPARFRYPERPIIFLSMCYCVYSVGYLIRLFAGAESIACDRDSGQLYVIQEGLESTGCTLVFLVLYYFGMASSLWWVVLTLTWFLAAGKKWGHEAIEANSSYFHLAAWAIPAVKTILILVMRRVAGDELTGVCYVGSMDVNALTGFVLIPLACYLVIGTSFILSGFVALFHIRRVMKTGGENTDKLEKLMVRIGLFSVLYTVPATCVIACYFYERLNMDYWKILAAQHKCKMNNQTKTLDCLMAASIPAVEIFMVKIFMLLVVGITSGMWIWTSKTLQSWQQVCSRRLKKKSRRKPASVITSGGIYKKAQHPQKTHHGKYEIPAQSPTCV
Procedure: (§1) Each tracer candidate was screened across the entire library of HiBiT-GPCR constructs using NanoBRET as the detection modality. As depicted in Figure 4A, the specificity of interactions was evaluated through decrease in BRET due to competitive displacement of a bound tracer by excess parental compound. Each tracer was analyzed for binding to each HiBiT-GPCR fusion in the absence and in the presence of competing parental compound. Briefly, HEK293 cells were transfected with HiBiT-GPCR constructs diluted into promoterless DNA to reduce expression and maximize translocation to the cell surface. Each tracer candidate was then screened at concentrations of 1 μM and 0.1 μM across cells expressing these fusions. Cells were treated for 1.5 h with tracer either alone or in the presence of 20 μM competing parental compound (i.e., control). BRET was measured upon addition of purified LgBiT and subsequent complementation with HiBiT genetically fused to a GPCR. The specificity of interactions was assessed through a decrease in BRET signal due to competitive displacement of the bound tracer. To further gauge the robustness of these interactions, the fold response over the control (i.e., BRETtracer/BRETcontrol) was calculated. We chose a 1.5-fold response, which translates to ≥7-fold signal over noise as the minimal threshold required to score an interaction as positive.
(§2) HiBiT-GPCR DNA constructs were diluted in 10 mM Tris pH 8 to a final concentration of 0.01 μg/μL, arrayed in 96-well plates and stored at −20 °C. For transfection, HEK293 cells were suspended in Opti-MEM (without phenol red) supplemented with 2% fetal bovine serum (Seradigm) and 100 units/mL penicillin–streptomycin (Gibco) at a final concentration of 220,000 cells/mL and dispensed into white 96-well plates at 90 μL/well. Subsequent transfections and screens were carried using an Agilent Bravo Automated Liquid Handling Platform. First, the 96-well HiBiT DNA arrays were diluted 25-fold in Opti-MEM (without serum or phenol red) to a final concentration of 0.0004 μg/μL and 20 μL of the diluted DNAs were transferred into new 96-well plates. Next, promoterless carrier DNA (1 μg/μL) was diluted 25-fold (0.04 μg/μL) and then dispensed into the diluted arrays at 20 μL/well. Following brief mixing, Viafect transfection reagent (Promega) diluted 16-fold into Opti-MEM was dispensed into the plates at 40 μL/well. After mixing by pipetting, plates were incubated for 10 min on the pipetting station deck. The DNA-transfection reagent complexes were then added to plates containing cells. To facilitate the screen, 10 μL of DNA-transfection reagent complexes were added in duplicates to the top 4 and bottom 4 rows, resulting in two identical 48-well arrays per plate. Plates with transfected cells were incubated for 18–20 h at 37 °C/5% CO2. A screen of each tracer across the entire library using two different concentrations requires duplicate plates of transfected cells. Depending on the number of tracers being screened, transfections can be scaled up using the same ratios. The next day, for each tracer, four 20× screening solutions in tracer dilution buffer (Promega) were prepared: two duplicates at final concentration of 20 μM and two duplicates at a final concentration of 2 μM. […] The four resulting solutions were diluted 4-fold in Opti-MEM without serum or phenol red to generate 5× solutions (5 µM and 0.5 µM tracer +/− 100 μM competing compound). To screen the library, a BioTek MultiFlo FX liquid dispenser was used to dispense 22.5 µL of tracer solution to the top 4 rows and 22.5 µL tracer + competing compound solution to the 4 bottom rows. Plates were briefly mixed on an orbital shaker and incubated for 1.5 h at room temperature. […] Plates were briefly mixed on an orbital shaker and incubated for 15 min to allow complementation.

EDNRB = target: T2, EDNRB (Homo sapiens, UniProt P24530); experiment: NanoBRET screen HiBiT-EDNRB in HEK293
T2 construct: purchased Promega (in-house HiBiT-GPCR construct library, NanoBRET)
T2 sequence (P24530 27-442): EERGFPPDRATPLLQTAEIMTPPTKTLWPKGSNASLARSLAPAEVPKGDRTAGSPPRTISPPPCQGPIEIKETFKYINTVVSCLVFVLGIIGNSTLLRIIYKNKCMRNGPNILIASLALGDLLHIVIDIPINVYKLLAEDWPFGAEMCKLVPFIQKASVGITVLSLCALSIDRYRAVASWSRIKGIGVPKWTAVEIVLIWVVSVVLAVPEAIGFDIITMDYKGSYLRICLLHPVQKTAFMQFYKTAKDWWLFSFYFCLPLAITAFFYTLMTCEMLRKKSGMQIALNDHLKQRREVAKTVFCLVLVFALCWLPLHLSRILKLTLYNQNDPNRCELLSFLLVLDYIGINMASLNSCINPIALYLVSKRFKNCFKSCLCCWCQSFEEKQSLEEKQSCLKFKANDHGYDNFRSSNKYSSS
Procedure: as §1, §2

ADRB2 = target: T3, ADRB2 (Homo sapiens, UniProt P07550); experiment: NanoBRET screen HiBiT-ADRB2 in HEK293
T3 construct: purchased Promega (in-house HiBiT-GPCR construct library, NanoBRET)
Procedure: as §1, §2

[1] = tracer at 0.1μM, listed as amitriptyline-b-2-NB590
[2] = tracer at 1μM, listed as amitriptyline-b-2-NB590

T3 sequence (P07550 whole entry): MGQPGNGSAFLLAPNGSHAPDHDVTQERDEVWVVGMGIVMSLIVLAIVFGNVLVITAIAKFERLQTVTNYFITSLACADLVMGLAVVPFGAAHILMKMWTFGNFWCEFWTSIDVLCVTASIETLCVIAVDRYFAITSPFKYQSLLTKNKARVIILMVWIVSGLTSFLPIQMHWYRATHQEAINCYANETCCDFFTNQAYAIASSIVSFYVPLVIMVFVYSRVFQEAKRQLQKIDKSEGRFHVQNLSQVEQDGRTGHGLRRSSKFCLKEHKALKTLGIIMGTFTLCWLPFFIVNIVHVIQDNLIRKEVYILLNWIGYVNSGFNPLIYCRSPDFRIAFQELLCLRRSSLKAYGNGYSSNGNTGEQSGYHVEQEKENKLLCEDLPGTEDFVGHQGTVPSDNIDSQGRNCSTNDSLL

SMILES	NanoBRET Fold Response (FZD10; FZD10, tracer 0.1μM)	NanoBRET Fold Response (FZD10; FZD10, tracer 1μM)	NanoBRET Fold Response (EDNRB; EDNRB, tracer 0.1μM)	NanoBRET Fold Response (EDNRB; EDNRB, tracer 1μM)	NanoBRET Fold Response (ADRB2; ADRB2, tracer 0.1μM)	NanoBRET Fold Response (ADRB2; ADRB2, tracer 1μM)	also measured
N#CN=C(NCCCOc1cccc(CN2CCCCC2)c1)NCCNC(=O)CCOCCOCCOCCOCCNC(=O)CCc1ccc2n1[B-](F)(F)[N+]1=C(c3ccc[nH]3)C=CC1=C2 [Aminopotentidine-2-NB590]	0.99	0.99	1.03	1.02	1.05	1.02	–
COc1ccc2c(n1)c(CCNC(C)=O)cn2CCNC(=O)CCc1ccc2n1[B-](F)(F)[N+]1=C(c3ccc[nH]3)C=CC1=C2 [Azamelatonin-1-NB590]	–	–	–	–	–	–	NanoBRET Fold Response (FZD10; 0.1μM tracer): 0.93; NanoBRET Fold Response (FZD10; 1μM tracer): 0.93; NanoBRET Fold Response (EDNRB; 0.1μM tracer): 0.96; NanoBRET Fold Response (EDNRB; 1μM tracer): 0.96; NanoBRET Fold Response (ADRB2; 0.1μM tracer): 0.97; NanoBRET Fold Response (ADRB2; 1μM tracer): 0.90
CN(CCC=C1c2ccccc2CCc2ccccc21)C(=O)CCOCCOCCOCCOCCNC(=O)CCc1ccc2n1[B-](F)(F)[N+]1=C(c3ccc[nH]3)C=CC1=C2 [Amitriptyline-e-2-NB590]	–	–	–	–	–	–	NanoBRET Fold Response (FZD10; tracer at 1μM): 1.01; NanoBRET Fold Response (EDNRB; tracer at 1μM): 1.01; NanoBRET Fold Response (ADRB2; tracer at 1μM): 1.04
CC(C)N(CC[C@H](c1ccccc1)c1cc(CCNC(=O)c2ccc(CNC(=O)CCc3ccc4n3[B-](F)(F)[N+]3=C(c5ccc[nH]5)C=CC3=C4)cc2)ccc1O)C(C)C [Tolterodine-BZ-NB590]	0.97	1.06	0.96	0.98	1.04	1.19	–
O=C(CCc1ccc2n1[B-](F)(F)[N+]1=C(c3ccc[nH]3)C=CC1=C2)NCCOCCOCCNC(=O)OCCOCCN1CCN(C2=Nc3ccccc3Sc3ccccc32)CC1 [Quetiapine-a-2-NB590]	0.92	0.80	0.97	0.99	1.13	0.97	–
Cc1cc2c(s1)Nc1ccccc1N=C2N1CCN(CCCNC(=O)CCOCCOCCOCCOCCNC(=O)CCc2ccc3n2[B-](F)(F)[N+]2=C(c4ccc[nH]4)C=CC2=C3)CC1 [Olanzapine-a-2-NB590]	0.98	0.99	1.00	0.89	1.01	1.15	–
CN(C)CCC=C1c2ccccc2CCc2ccc(C(=O)NCCNC(=O)CCOCCOCCOCCOCCNC(=O)CCc3ccc4n3[B-](F)(F)[N+]3=C(c5ccc[nH]5)C=CC3=C4)cc21 [Amitriptyline-b-2-NB590]	–	–	–	–	–	–	NanoBRET Fold Response (FZD10; [1]): 0.18; NanoBRET Fold Response (FZD10; tracer at 1μM): 0.99; NanoBRET Fold Response (EDNRB; [2]): 0.83; NanoBRET Fold Response (ADRB2; [1]): 1.08; NanoBRET Fold Response (ADRB2; [2]): 0.96
O=C(CCOCCOCCOCCOCCNC(=O)CCc1ccc2n1[B-](F)(F)[N+]1=C(c3ccc[nH]3)C=CC1=C2)NCCCN1CCN(C2=Nc3cc(Cl)ccc3Nc3ccccc32)CC1 [Clozapine-a-2-NB590]	–	–	–	–	–	–	NanoBRET Fold Response (FZD10; FZD10, 0.1μM tracer): 1.01; NanoBRET Fold Response (FZD10; FZD10, 1μM tracer): 0.99; NanoBRET Fold Response (EDNRB; EDNRB, 0.1μM tracer): 1.01; NanoBRET Fold Response (EDNRB; EDNRB, 1μM tracer): 0.93; NanoBRET Fold Response (ADRB2; ADRB2, 0.1μM tracer): 1.09; NanoBRET Fold Response (ADRB2; ADRB2, 1μM tracer): 1.10
CN1CCN(C2=Nc3cc(Cl)ccc3Nc3ccc(CNC(=O)CCOCCOCCOCCOCCNC(=O)CCc4ccc5n4[B-](F)(F)[N+]4=C(c6ccc[nH]6)C=CC4=C5)cc32)CC1 [Clozapine-b-2-NB590]	–	–	–	–	–	–	NanoBRET Fold Response (FZD10; FZD10, 0.1μM tracer): 1.01; NanoBRET Fold Response (FZD10; FZD10, 1μM tracer): 1.08; NanoBRET Fold Response (EDNRB; EDNRB, 0.1μM tracer): 0.96; NanoBRET Fold Response (EDNRB; EDNRB, 1μM tracer): 0.99; NanoBRET Fold Response (ADRB2; ADRB2, 0.1μM tracer): 1.01; NanoBRET Fold Response (ADRB2; ADRB2, 1μM tracer): 0.93
Cc1nc2n(c(=O)c1CCN1CCC(c3noc4cc(F)ccc34)CC1)CCCC2OC(=O)NCCOCCOCCOCCOCCNC(=O)CCc1ccc2n1[B-](F)(F)[N+]1=C(c3ccc[nH]3)C=CC1=C2 (centres unmarked) [Risperidone-2-NB590]	1.00	1.04	1.02	0.97	0.97	0.98	–
